Measurements published in patent EP4122917A1, “C2-THIOETHER […] AND TETRAMERS AND USE THEREOF” (priority 2021, dated 2023).
Read-outs that look alike come from different tables or passages of the source.

Key:
[1] = system: Pseudotyped vesicular stomatitis virus (VSV) carrying a codon-optimized S protein of the Wuhan SARS-CoV-2 strain; type: cell-based; conditions: read-out: IC50 (µM) Pseudotype VSV (Vero)
[2] = system: Pseudotyped vesicular stomatitis virus (VSV) carrying a codon-optimized S protein of the Wuhan SARS-CoV-2 strain; type: cell-based; conditions: read-out: IC50 (µM) Pseudotype VSV (A549ACE2-TM PRSS2)
[3] = in vitro; conditions: monkey, vero cells
[4] = in vitro; conditions: human, a549-ace2-tmprss2 cells
[5] = in vitro; conditions: monkey, vero-e6 cells

| Compound | IC50 [1] [µM] | IC50 [2] [µM] | CC50 [3] [µM] | CC50 [4] [µM] | CC50 at 24 h [5] [µM] |
| --- | --- | --- | --- | --- | --- |
| NCC(=O)NC(CCC(=O)N[C@@H](Cc1c(Sc2ccc([N+](=O)[O-])cc2)[nH]c2ccccc12)C(=O)O)(CCC(=O)N[C@@H](Cc1c(Sc2ccc([N+](=O)[O-])cc2)[nH]c2ccccc12)C(=O)O)CCC(=O)N[C@@H](Cc1c(Sc2ccc([N+](=O)[O-])cc2)[nH]c2ccccc12)C(=O)O [Compound 7a] | 0.23 | 2.4 | > 100 | > 100 | > 100 |
| NCC(=O)NC(CCC(=O)N[C@@H](Cc1c(Sc2cccc([N+](=O)[O-])c2)[nH]c2ccccc12)C(=O)O)(CCC(=O)N[C@@H](Cc1c(Sc2cccc([N+](=O)[O-])c2)[nH]c2ccccc12)C(=O)O)CCC(=O)N[C@@H](Cc1c(Sc2cccc([N+](=O)[O-])c2)[nH]c2ccccc12)C(=O)O [Compound 7b] | 13 | 6.44 | > 100 | > 100 | – |
| CC(=O)c1ccc(Sc2[nH]c3ccccc3c2C[C@H](NC(=O)CCC(CCC(=O)N[C@@H](Cc2c(Sc3ccc(C(C)=O)cc3)[nH]c3ccccc23)C(=O)O)(CCC(=O)N[C@@H](Cc2c(Sc3ccc(C(C)=O)cc3)[nH]c3ccccc23)C(=O)O)NC(=O)CN)C(=O)O)cc1 [Compound 7c] | 1.4 | 1.94 | > 100 | > 100 | > 100 |
| NCC(=O)NC(CCC(=O)N[C@@H](Cc1c(Sc2ccc(C(F)(F)F)cc2)[nH]c2ccccc12)C(=O)O)(CCC(=O)N[C@@H](Cc1c(Sc2ccc(C(F)(F)F)cc2)[nH]c2ccccc12)C(=O)O)CCC(=O)N[C@@H](Cc1c(Sc2ccc(C(F)(F)F)cc2)[nH]c2ccccc12)C(=O)O [Compound 7d] | 15.1 | 9.35 | > 100 | > 100 | – |
| N#Cc1ccc(Sc2[nH]c3ccccc3c2C[C@H](NC(=O)CCC(CCC(=O)N[C@@H](Cc2c(Sc3ccc(C#N)cc3)[nH]c3ccccc23)C(=O)O)(CCC(=O)N[C@@H](Cc2c(Sc3ccc(C#N)cc3)[nH]c3ccccc23)C(=O)O)NC(=O)CN)C(=O)O)cc1 [Compound 7e] | 13.9 | 8.8 | > 100 | > 100 | – |
| NCC(=O)NC(CCC(=O)N[C@@H](Cc1c(Sc2ccc(F)cc2)[nH]c2ccccc12)C(=O)O)(CCC(=O)N[C@@H](Cc1c(Sc2ccc(F)cc2)[nH]c2ccccc12)C(=O)O)CCC(=O)N[C@@H](Cc1c(Sc2ccc(F)cc2)[nH]c2ccccc12)C(=O)O [Compound 7f] | 28.4 | 31 | > 100 | > 100 | – |
